How the values were obtained:
[1] = crystalline free base; cited from earlier work
[2] = storage and handling stability of the solid form; assay type: physicochemical

stability on handling and storage (morphology and physicochemical characteristics) ([2]; solid crystalline form, stored for longer time) | time stable to handle and store without any significant or measurable change in morphology and physicochemical characteristics ([2]; solid crystalline material after drying, storage) | Structure (SMILES) | solubility [1]
– | – | CS(=O)(=O)c1ccc(C(=O)Nc2ccc(Cl)c(-c3ccccn3)c2)c(Cl)c1 [Vismodegib] | pH dependent solubility
quite stable | more than 6 months | CS(=O)(=O)c1ccc(C(=O)Nc2ccc(Cl)c(-c3ccccn3)c2)c(Cl)c1 [Form-SV, 2-Chloro-N-(4-chloro-3-pyridin-2-ylphenyl)-4-methylsulfonylbenzamide] | –
